Measurements published in PubChem BioAssay AID192 (DTP/NCI, 2004).
Several values for one entry are separate records, joined by “and”; a condition that tells them apart may be missing. Equal entries are not always repeated. Inconclusive results and toxic doses are left out. The calls were made as follows: active = survival T/C of 150% or more; inactive = T/C below 125% in these data.

Tested on: BDF1 mice, B16 melanoma ip, median survival T/C
Assay: NCI In Vivo Anticancer Drug Screen. Data for tumor model B16 Melanoma (intraperitoneal) in B6D2F1 (BDF1) mice
Details: endpoint: median survival time, schedule: Q01DX009 (ip), higher = longer survival
How it was run: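 Antitumor activity is assessed in mice bearing a transplanted tumor, with survival or tumor size compared against vehicle-dosed controls and expressed as T/C.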

[1] = dose: 25.0 mg/kg/injection, vehicle: Klucel (hydroxypropylcellulose) (HPC)
[2] = dose: 50.0 mg/kg/injection, vehicle: Klucel (hydroxypropylcellulose) (HPC)

Measured: T/C

COC(=O)c1nc(-c2ccc3c(n2)C(=O)C(N)=C(OC)C3=O)c(N)c(-c2ccc(OC)c(OC)c2O)c1C
inactive: dose: 0.1 mg/kg/injection, vehicle: saline with Tween-80 95 % of control | dose: 0.2 mg/kg/injection, vehicle: saline with Tween-80 97 % of control | dose: 0.4 mg/kg/injection, vehicle: saline with Tween-80 105 % of control | dose: 0.8 mg/kg/injection, vehicle: saline with Tween-80 104 % of control

Oc1ccc(Nc2ccnc3cc(Cl)ccc23)cc1CN(CCCl)CCCl
inactive: dose: 0.31 mg/kg/injection, vehicle: saline 97 % of control | dose: 0.63 mg/kg/injection, vehicle: saline 105 % of control | dose: 1.25 mg/kg/injection, vehicle: saline 107 % of control and 113 % of control | dose: 2.5 mg/kg/injection, vehicle: saline 115 % of control

NC(=O)C(Br)CBr (configuration not stated)
inactive: [1] 92 % of control | dose: 25.0 mg/kg/injection, vehicle: saline with Tween-80 111 % of control | [2] 105 % of control | dose: 50.0 mg/kg/injection, vehicle: saline with Tween-80 108 % of control | dose: 100.0 mg/kg/injection, vehicle: Klucel (hydroxypropylcellulose) (HPC) 107 % of control | dose: 100.0 mg/kg/injection, vehicle: saline with Tween-80 106 % of control

NC(=O)c1ncc[nH]c1=O
inactive: dose: 50.0 mg/kg/injection, vehicle: saline 118 % of control | dose: 100.0 mg/kg/injection, vehicle: saline 124 % of control

COc1cc2[nH]c(C)c(CCN3CCN(c4ccccc4)CC3)c2cc1OC
inactive: dose: 0.04 mg/kg/injection, vehicle: Klucel (hydroxypropylcellulose) (HPC) 107 % of control | dose: 0.09 mg/kg/injection, vehicle: Klucel (hydroxypropylcellulose) (HPC) 92 % of control | dose: 0.19 mg/kg/injection, vehicle: Klucel (hydroxypropylcellulose) (HPC) 93 % of control | dose: 0.39 mg/kg/injection, vehicle: Klucel (hydroxypropylcellulose) (HPC) 106 % of control | dose: 0.78 mg/kg/injection, vehicle: Klucel (hydroxypropylcellulose) (HPC) 102 % of control

CN(C)[C@@H]1C(=O)C(C(=O)NCN(CCCl)CCCl)=C(O)[C@@]2(O)C(=O)C3=C(O)c4c(O)cccc4[C@@](C)(O)[C@H]3C[C@@H]12
inactive: dose: 3.13 mg/kg/injection, vehicle: Klucel (hydroxypropylcellulose) (HPC) 98 % of control | dose: 6.25 mg/kg/injection, vehicle: Klucel (hydroxypropylcellulose) (HPC) 113 % of control | [1] 97 % of control

CC1(C)N=C(N)N=C(N)N1c1ccc(Cl)cc1Cl
inactive: dose: 12.5 mg/kg/injection, vehicle: Klucel (hydroxypropylcellulose) (HPC) 108 % of control | [1] 111 % of control | [2] 123 % of control
